Measurements from US20160220523A1 (GEORGETOWN UNIVERSITY, priority 2013, published 2016).

Tests used:
Type in all cases: cell-based, murine
IL-1β = assay: LPS-induced IL-1β expression in BV2 cells (RT-PCR)
Method: (§1) PGC-1α expression was determined by RT-PCR.
(§2) Then the cells were treated with 100 ng/mL LPS for 4 hrs. […] (**p<0.01 vs. control; ##p<0.001 vs. LPS).
(§3) Cell lysate was collected for Western blotting analysis.
(§4) MN9D cells were cultured in Dulbecco's Modified Eagle Medium (DMEM) supplemented with 10% fetal bovine serum, and 3.7 g/L sodium bicarbonate at 37° C., 5% carbon dioxide. BV-2 cells (murine microglia) were maintained in DMEM supplemented with 10% fetal bovine serum and antibiotics (penicillin, 100 U/mL, streptomycin […]). Antibiotics were omitted for the fenofibrate evaluation study.
(§5) AMPK is an energy sensor and can phosphorylate PGC-1α. It is plausible that AMPK phosphorylates PGC-1α and that PGC-1α then acts through positive feedback, binding to myocyte enhancer factor (MEF)-binding site to increase its own gene expression.

PGC-1α = PGC-1α expression in LPS-treated BV2 cells (RT-PCR); conditions: GW6471 0.25-2 μM 0.5 hrs, 20 μM fenofibrate 18 hrs, 100 ng/mL LPS 4 hrs
Method: as §1, §2, §4

AMPK = AMPK phosphorylation in BV2 cells (Western blot); conditions: compound C 0.5 hour, then fenofibrate 1 hour
Method: as §3
BV-2 cells (murine microglia) were maintained in Dulbecco's Modified Eagle Medium supplemented with 10% fetal bovine serum and antibiotics (penicillin, 100 U/mL, streptomycin 100 μg/mL). Antibiotics were omitted for the fenofibrate evaluation study.
as §5

Structure (SMILES)	effect on fenofibrate mediated anti-inflammatory effects (IL-1β mRNA) (IL-1β; GW6471 0.25-2 μM 0.5 hrs, 20 μM fenofibrate 18 hrs, 100 ng/mL LPS 4 hrs)	effect on fenofibrate mediated PGC-1α upregulation (PGC-1α)	effect on fenofibrate mediated anti-inflammation (IL-1β gene expression) (IL-1β; Compound C 0.5 hour, then fenofibrate overnight, LPS)	AMPK phosphorylation under fenofibrate (AMPK)
CCC(=O)NC[C@H](Cc1ccc(OCCc2nc(-c3ccccc3)oc2C)cc1)N/C(C)=C\C(=O)c1ccc(C(F)(F)F)cc1 [GW6471]	fails to suppress	fails to suppress	–	–
c1cc(-c2cnn3cc(-c4ccc(OCCN5CCCCC5)cc4)cnc23)ccn1 [compound C]	–	–	weakened the anti-inflammatory effects of fenofibrate	concentration-dependent inhibitory effect
